According to ChEMBL document CHEMBL4507265 (2021):

Experiments:
[1] = target: Histamine H3 receptor (Homo sapiens) (UniProt Q9Y5N1); conditions: Compound concentration 10.0 uM
Mus musculus = species on record: Mus musculus; experiment: Inhibition of Phorbol Ester at 10 µM in the Eurofins-Panlabs radioligand binding assay (Eurofins_assay_264500); set-up: ligand concentration 3 nM; conditions: Compound concentration 10.0 uM
[2] = target: D(2) dopamine receptor (Homo sapiens) (UniProt P14416); conditions: Compound concentration 10.0 uM
Chain of D(2) dopamine receptor (Homo sapiens) (P14416 whole entry): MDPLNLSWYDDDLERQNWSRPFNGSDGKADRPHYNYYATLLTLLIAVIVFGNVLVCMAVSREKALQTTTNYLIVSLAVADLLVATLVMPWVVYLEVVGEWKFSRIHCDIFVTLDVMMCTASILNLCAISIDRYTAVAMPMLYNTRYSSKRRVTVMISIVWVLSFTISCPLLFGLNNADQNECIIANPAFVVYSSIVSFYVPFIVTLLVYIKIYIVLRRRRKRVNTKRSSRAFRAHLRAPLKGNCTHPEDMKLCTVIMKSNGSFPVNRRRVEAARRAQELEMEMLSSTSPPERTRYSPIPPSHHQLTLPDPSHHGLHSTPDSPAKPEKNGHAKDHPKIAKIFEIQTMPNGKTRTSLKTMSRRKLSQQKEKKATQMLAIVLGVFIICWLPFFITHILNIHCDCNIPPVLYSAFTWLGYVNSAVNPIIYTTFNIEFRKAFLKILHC

[3] = target: Prostaglandin E2 receptor EP4 subtype (Homo sapiens) (UniProt P35408); experiment: Inhibition of Prostanoid EP4 at 10 µM in the Eurofins-Panlabs radioligand binding assay (Eurofins_assay_268420); set-up: ligand concentration 1 nM; conditions: Compound concentration 10.0 uM
Chain of Prostaglandin E2 receptor EP4 subtype (Homo sapiens) (P35408 whole entry): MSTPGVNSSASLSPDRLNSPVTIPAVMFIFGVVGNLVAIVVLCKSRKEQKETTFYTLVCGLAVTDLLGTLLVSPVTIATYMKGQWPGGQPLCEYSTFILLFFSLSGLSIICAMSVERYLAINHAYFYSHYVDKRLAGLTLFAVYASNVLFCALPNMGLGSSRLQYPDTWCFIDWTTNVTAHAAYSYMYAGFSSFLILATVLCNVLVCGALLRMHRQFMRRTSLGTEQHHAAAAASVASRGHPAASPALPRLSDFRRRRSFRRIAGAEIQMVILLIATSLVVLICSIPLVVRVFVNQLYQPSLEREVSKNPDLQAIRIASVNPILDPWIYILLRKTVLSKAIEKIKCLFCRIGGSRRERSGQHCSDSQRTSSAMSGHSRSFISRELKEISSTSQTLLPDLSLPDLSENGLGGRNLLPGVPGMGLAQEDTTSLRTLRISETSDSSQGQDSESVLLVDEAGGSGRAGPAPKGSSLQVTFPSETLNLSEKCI

[4] = target: L-type calcium channel, benzothiazepine site (Cav1.2 alpha-1C) (Homo sapiens, UniProt Q13936); experiment: Inhibition of Calcium Channel L-Type, Benzothiazepine at 10 µM in the Eurofins-Panlabs radioligand binding assay (Eurofins_assay_214510); set-up: ligand concentration 2 nM, non-specific ligand with concentration 10 µM Diltiazem, incubation time 3h, incubation temperature 4 °C; conditions: male, Wistar, rat, rat whole brain preparation, probe [3H] Diltiazem, 2 nM; compound concentration 10 uM; target entry is the homologue from another species
Chain of L-type calcium channel, benzothiazepine site (Cav1.2 alpha-1C) (Q13936 whole entry): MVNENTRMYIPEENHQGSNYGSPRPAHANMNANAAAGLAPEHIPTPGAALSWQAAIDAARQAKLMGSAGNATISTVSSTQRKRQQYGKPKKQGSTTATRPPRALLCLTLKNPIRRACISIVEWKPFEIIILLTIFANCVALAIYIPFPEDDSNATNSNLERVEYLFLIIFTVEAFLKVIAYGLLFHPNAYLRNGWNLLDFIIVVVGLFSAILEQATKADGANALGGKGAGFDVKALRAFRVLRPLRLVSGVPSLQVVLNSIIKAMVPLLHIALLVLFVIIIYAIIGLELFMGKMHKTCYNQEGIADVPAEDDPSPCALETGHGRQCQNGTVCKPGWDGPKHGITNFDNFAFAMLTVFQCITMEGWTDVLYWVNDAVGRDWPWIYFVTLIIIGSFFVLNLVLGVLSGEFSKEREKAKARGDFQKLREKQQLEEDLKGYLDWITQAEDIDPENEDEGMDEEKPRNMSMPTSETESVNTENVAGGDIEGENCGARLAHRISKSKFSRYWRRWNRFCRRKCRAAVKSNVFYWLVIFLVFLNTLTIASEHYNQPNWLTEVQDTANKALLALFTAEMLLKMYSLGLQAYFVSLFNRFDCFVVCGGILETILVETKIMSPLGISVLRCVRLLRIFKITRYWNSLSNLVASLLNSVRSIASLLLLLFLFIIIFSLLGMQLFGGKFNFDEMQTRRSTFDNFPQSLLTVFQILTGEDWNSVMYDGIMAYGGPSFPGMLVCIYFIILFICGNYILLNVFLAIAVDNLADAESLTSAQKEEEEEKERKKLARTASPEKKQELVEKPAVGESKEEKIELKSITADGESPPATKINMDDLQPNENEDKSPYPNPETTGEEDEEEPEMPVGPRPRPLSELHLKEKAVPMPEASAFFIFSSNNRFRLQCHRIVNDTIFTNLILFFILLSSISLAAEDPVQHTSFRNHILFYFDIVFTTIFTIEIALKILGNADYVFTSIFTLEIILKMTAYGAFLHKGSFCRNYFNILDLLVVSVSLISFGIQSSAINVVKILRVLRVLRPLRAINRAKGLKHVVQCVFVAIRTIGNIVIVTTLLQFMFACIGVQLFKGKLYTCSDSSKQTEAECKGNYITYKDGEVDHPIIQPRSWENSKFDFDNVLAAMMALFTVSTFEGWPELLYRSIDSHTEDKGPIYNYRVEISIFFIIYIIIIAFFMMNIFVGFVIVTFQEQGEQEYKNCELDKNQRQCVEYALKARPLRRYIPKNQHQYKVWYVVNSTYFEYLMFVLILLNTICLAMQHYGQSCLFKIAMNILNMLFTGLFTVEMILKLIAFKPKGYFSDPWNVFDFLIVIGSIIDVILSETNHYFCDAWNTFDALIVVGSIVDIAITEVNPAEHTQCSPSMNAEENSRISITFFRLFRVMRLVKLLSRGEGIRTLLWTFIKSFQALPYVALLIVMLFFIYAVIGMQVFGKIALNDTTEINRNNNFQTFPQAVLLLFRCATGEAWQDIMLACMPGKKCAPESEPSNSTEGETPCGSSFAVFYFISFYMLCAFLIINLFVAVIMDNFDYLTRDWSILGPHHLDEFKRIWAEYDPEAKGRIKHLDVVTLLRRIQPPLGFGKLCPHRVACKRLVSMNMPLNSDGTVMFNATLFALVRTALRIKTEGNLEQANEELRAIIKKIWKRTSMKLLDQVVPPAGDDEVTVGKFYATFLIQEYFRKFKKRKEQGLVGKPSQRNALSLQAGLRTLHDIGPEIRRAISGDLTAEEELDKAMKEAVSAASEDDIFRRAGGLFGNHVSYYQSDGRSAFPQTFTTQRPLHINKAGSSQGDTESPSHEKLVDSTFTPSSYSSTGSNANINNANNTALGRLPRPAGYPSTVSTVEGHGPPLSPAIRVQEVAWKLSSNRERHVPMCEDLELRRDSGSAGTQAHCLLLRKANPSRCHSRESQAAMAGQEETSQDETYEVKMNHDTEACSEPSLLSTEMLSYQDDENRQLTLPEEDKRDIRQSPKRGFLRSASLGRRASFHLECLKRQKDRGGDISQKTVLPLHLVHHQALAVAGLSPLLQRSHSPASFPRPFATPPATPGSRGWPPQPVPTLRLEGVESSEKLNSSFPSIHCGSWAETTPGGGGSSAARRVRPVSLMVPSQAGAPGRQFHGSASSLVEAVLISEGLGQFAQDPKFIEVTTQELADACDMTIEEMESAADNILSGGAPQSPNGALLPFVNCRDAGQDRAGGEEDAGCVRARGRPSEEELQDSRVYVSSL

[5] = target: GABA-A receptor; anion channel (Rattus norvegicus) (UniProt O09028+P15431+P18506+P18508+P19969+P20236+P23574+P23576+P28471+P28473+P30191+P62813+P63079+P63138+Q91ZM7+Q9ES14); conditions: Compound concentration 10.0 uM
[6] = target: Delta-type opioid receptor (Homo sapiens) (UniProt P41143); conditions: Compound concentration 10.0 uM
Chain of Delta-type opioid receptor (Homo sapiens) (P41143 whole entry): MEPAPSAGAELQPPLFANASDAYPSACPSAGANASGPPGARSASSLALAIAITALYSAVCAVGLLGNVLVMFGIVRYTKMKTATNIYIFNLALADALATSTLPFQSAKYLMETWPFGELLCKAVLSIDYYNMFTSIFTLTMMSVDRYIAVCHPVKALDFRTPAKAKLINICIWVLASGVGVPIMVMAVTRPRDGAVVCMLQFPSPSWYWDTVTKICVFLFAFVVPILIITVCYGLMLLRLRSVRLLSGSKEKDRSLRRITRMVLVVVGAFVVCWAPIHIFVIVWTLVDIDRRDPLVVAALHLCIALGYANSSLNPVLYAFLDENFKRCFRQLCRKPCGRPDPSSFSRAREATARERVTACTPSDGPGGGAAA

Rattus norvegicus = species on record: Rattus norvegicus; experiment: Inhibition of Rolipram at 10 µM in the Eurofins-Panlabs radioligand binding assay (Eurofins_assay_268811); assay type: protein assay; set-up: ligand concentration 1.8 nM; conditions: Compound concentration 10.0 uM
[7] = target: T1, Alpha-1A adrenergic receptor (Homo sapiens) (UniProt P35348); conditions: Rattus norvegicus; Compound concentration 10.0 uM
T1 sequence (whole entry): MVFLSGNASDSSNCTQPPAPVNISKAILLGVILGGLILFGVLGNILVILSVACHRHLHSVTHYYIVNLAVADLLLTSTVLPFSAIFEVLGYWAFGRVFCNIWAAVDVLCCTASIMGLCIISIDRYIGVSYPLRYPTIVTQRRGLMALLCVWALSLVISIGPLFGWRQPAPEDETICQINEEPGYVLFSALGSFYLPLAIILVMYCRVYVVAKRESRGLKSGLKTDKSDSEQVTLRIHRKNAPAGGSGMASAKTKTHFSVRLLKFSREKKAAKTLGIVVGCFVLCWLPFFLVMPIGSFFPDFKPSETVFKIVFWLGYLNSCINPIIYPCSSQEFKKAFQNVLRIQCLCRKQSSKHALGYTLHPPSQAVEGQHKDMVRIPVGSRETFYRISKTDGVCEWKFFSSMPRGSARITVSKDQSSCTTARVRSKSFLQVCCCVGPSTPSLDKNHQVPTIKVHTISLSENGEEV

[8] = target: 5-hydroxytryptamine receptor 2C (Homo sapiens, UniProt P28335); experiment: GPCRScan assay: inhibition of 5-HT2C; set-up: radioligand conc. used [nm] 1.0 – 2.5, parental cells HEK T
Chain of 5-hydroxytryptamine receptor 2C (P28335 whole entry): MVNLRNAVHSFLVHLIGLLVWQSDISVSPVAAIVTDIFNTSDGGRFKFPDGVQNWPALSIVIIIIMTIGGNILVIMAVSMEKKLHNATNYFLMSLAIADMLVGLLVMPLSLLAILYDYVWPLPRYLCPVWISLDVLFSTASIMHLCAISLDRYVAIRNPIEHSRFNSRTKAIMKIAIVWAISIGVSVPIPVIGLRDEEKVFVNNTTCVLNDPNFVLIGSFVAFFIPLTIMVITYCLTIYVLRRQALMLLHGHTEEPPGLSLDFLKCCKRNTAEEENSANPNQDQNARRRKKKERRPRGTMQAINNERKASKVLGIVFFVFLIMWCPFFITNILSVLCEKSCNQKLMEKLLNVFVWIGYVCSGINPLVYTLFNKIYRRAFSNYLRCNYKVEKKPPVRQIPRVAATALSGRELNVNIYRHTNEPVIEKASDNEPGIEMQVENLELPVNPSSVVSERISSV

Chain of Histamine H3 receptor (Homo sapiens) (Q9Y5N1 whole entry): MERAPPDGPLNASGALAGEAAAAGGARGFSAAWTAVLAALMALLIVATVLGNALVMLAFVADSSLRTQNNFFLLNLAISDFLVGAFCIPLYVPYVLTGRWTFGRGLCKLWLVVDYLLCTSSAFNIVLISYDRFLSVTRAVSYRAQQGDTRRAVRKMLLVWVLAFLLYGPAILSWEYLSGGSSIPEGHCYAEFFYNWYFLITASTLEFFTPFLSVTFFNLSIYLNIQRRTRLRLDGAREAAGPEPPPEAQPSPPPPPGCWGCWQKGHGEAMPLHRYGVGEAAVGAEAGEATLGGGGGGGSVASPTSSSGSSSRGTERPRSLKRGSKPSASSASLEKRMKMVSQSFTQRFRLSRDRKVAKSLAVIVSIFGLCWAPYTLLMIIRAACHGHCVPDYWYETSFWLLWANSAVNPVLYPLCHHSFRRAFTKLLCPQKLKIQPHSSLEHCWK

SMILES	inhibition [1] [%]	inhibition (Mus musculus) [%]	inhibition [2] [%]	inhibition [3] [%]	inhibition at 3 h, 10 µM [4]	inhibition [5] [%]	inhibition [6] [%]	inhibition (Rattus norvegicus) [%]	inhibition [7] [%]	Ki ([8]; read-out: Ki) [µM]	Ki ([8]; read-out: pKi (converted)) [µM]
NS(=O)(=O)c1cc(NC(=O)C2(c3ccccc3Cl)CC2)ccc1Oc1cccc(Cl)c1 [BAY-207]	3.87										
NS(=O)(=O)c1cc(NC(=O)Cc2ccccc2)ccc1Oc1cccc(Cl)c1 [BAY-1797]		4	15	21	17% (not active)	0	4	8	16	6.52	5.89
